# Measurements reported in US20090143279A1 (priority 2007, published 2009).
# Read-outs that look alike come from different tables or passages of the source.
# Tests used:
# [1] = system: mitochondrial membrane potential; format: cell-based, mouse
# [2] = system: reactive oxygen species; format: cell-based, mouse
# [3] = system: OXPHOS gene expression; format: cell-based, mouse
# [4] = system: nuOXPHOS transcripts; format: cell-based, mouse
# [5] = system: mtOXPHOS transcripts; format: cell-based, mouse
# [6] = system: cytochrome c; format: cell-based, mouse
# [7] = system: C2C12 myotubes
# [8] = system: cellular dehydrogenase activity
# [9] = composite Z-score vs DMSO, Conc 20 μM
# [10] = 20 μM, composite Z-score vs DMSO
# [11] = Conc 20 μM, normalized score vs mock-treated (DMSO) wells
# [12] = composite Z-score vs mock-treated (DMSO) wells, Conc 20 μM
Structure (SMILES),"ΔΨm [1, 9]","ROS [2, 9]","GE-HTS [3, 9]","nucOX [4, 9]","mitoOX [5, 9]","cyt c [6, 9]","Viability [7, 9]","MTT [8, 9]","ΔΨm [1, 10]","ROS [2, 10]","GE-HTS [3, 10]","nucOX [4, 10]","mitoOX [5, 10]","cyt c [6, 10]","Viability [7, 10]","MTT [8, 10]",further results
[O-][n+]1ccccc1[S-].[O-][n+]1ccccc1[S-].[Zn+2] [pyrithione zinc],–,–,–,–,–,–,–,–,–,–,–,–,–,–,–,–,ΔΨm (composite Z-score vs DMSO) [1]: −3.529; ROS (composite Z-score vs DMSO) [2]: −2.405; GE-HTS (composite Z-score vs DMSO) [3]: −3.250; nucOX (composite Z-score vs DMSO) [4]: −4.140; mitoOX (composite Z-score vs DMSO) [5]: −0.770; cyt c (composite Z-score vs DMSO) [6]: −4.773; Viability (composite Z-score vs DMSO) [7]: −5.339; MTT (composite Z-score vs DMSO) [8]: −6.284
O=C(O)c1cccc(O)c1O [pyrocatechuic acid],−1.204,1.147,−0.386,−0.324,−0.367,−0.018,−1.076,−1.800,–,–,–,–,–,–,–,–,–
"COC1=C[C@@H](C)[C@@H]2C[C@H]3OC(=O)C[C@H]4C(C)=C(OC)C(=O)[C@H]([C@@]2(C)C1=O)[C@@]34C [quassin, reference compound]",–,–,–,–,–,–,–,–,0.033,0.925,0.095,0.205,−0.168,−0.233,−0.688,−0.400,–
NC(=O)C1(O)C[C@@H](O)C(O)[C@H](O)C1 (stereo partly drawn) [quinamide],–,–,–,–,–,–,–,–,–,–,–,–,–,–,–,–,"ΔΨm (composite Z-score) [1, 11]: −0.518; ROS (composite Z-score) [2, 11]: 0.405; GE-HTS (composite Z-score) [3, 11]: −0.139; nucOX (composite Z-score) [4, 11]: −0.529; mitoOX (composite Z-score) [5, 11]: 0.735; cyt c (composite Z-score) [6, 11]: 0.359; Viability (composite Z-score) [7, 11]: −0.397; MTT (composite Z-score) [8, 11]: −1.034"
CCOC(=O)[C@H](CCc1ccccc1)N[C@@H](C)C(=O)N1Cc2ccccc2C[C@H]1C(=O)O [quinapril],–,–,–,–,–,–,–,–,−0.276,1.175,−0.132,−0.127,−0.130,0.237,0.034,−1.111,–
C=C[C@H]1C[N@@]2CC[C@H]1C[C@@H]2[C@@H](O)c1ccnc2ccc(OC)cc12 [quinidine],1.187,1.326,0.849,0.956,0.501,1.286,0.916,−0.233,–,–,–,–,–,–,–,–,–
C=C[C@H]1CN2CC[C@H]1C[C@H]2[C@H](OC(=O)OCC)c1ccnc2ccc(OC)cc12 [quinine ethyl carbonate],–,–,–,–,–,–,–,–,−0.661,0.401,−1.190,−1.003,−1.297,0.822,−0.167,−0.071,–
O=C(O)c1cccnc1C(=O)O [quinolinic acid],–,–,–,–,–,–,–,–,−1.023,0.849,−0.586,−0.575,−0.519,−0.222,−0.516,−1.118,–
COc1ccc(/C=C/c2cc(O)cc(O)c2)cc1 [resveratrol 4′-methyl ether],–,–,–,–,–,–,–,–,–,–,–,–,–,–,–,–,"ΔΨm [1, 12]: −0.389; ROS [2, 12]: 0.225; GE-HTS [3, 12]: −0.005; nucOX [4, 12]: −0.063; mitoOX [5, 12]: 0.065; cyt c [6, 12]: 0.142; Viability [7, 12]: −0.225; MTT [8, 12]: −1.056"
COc1ccc(-c2coc3c(O)c(OC)ccc3c2=O)cc1 [retusin 7-methyl ether],−0.603,0.088,0.788,0.765,0.631,0.412,−0.245,−0.627,–,–,–,–,–,–,–,–,–
COc1ccc(-c2coc3c(OC)c(OC)ccc3c2=O)cc1 [retusin dimethyl ether],–,–,–,–,–,–,–,–,–,–,–,–,–,–,–,–,ΔΨm (composite Z-score) [1]: 0.378; ROS (composite Z-score) [2]: 0.069; GE-HTS (composite Z-score) [3]: −0.135; nucOX (composite Z-score) [4]: −0.033; mitoOX (composite Z-score) [5]: −0.331; cyt c (composite Z-score) [6]: −0.199; Viability (composite Z-score) [7]: 0.317; MTT (composite Z-score) [8]: −1.263
COC1=C(O)C(=O)c2c(cc3oc(C(C)=O)c(O)c3c2O)C1=O [rhodocladonic acid],0.068,0.733,0.294,0.393,0.072,1.150,−0.416,−1.057,–,–,–,–,–,–,–,–,–
